According to ChEMBL document CHEMBL1159236, “Venezenin: a new bioactive Annonaceous acetogenin from the bark of Xylopia aromatica” (J Nat Prod, 1995):
Values after ≈ are worked out from the molar mass of the structure shown.

Experiments:
[1] = test system: A549; test: Cytotoxicity against human A549 cells after 7 hrs by MTT assay; assay type: functional; details: A549, 7 h, read-out: ED50 (the source's name)
[2] = test system: MCF7; test: Cytotoxicity against human MCF7 cells after 7 hrs by MTT assay; assay type: functional; details: for EC50: Homo sapiens, MCF7, 7 h, read-out: ED50 (the source's name)
[3] = test system: HT-29; test: Cytotoxicity against human HT-29 cells after 7 hrs by MTT assay; assay type: functional; details: for EC50: Homo sapiens, HT-29, 7 h, read-out: ED50 (the source's name)
[4] = Toxicity in brine shrimp; assay type: organism-based; details: artemia, in vivo
[5] = Inhibition of respiration in rat liver mitochondria assessed per mg of protein; assay type: functional

Structure (SMILES) | EC50 [1] | EC50 [2] | EC50 [3] | LC50 [4] | ED50 [2] | ED50 [3] | IC50 [5]
CCCCCCCCCCCC/C=C\CC[C@H]1OC(C)(C)O[C@@H]1CCCCCCC(=O)CCCCC[C@@H](O)CC1=C[C@H](C)OC1=O | < 0.001 mg/L | 0.347 mg/L (≈ 0.536 µM) | 0.932 mg/L (≈ 1.44 µM) | – | – | – | –
CCCCCCCCCCCC[C@H](O)[C@@H]1CC[C@@H]([C@@H](O)CCCCCCC(=O)CCCCC[C@@H](O)CC2=C[C@H](C)OC2=O)O1 | 0.00786 mg/L (≈ 0.0126 µM) | – | – | 0.84 mg/L (≈ 1.35 µM) | 7.47 ×10⁻⁵ ug/ml | 3.46 ×10⁻⁴ ug/ml | 1.7 µM
CCCCCCCCCCCC/C=C\CC[C@@H](O)[C@H](O)CCCCCCC(O)CCCCC[C@@H](O)CC1=C[C@H](C)OC1=O (stereo partly drawn) | < 0.001 mg/L | 0.0572 mg/L (≈ 0.0939 µM) | 2.62 mg/L (≈ 4.3 µM) | – | – | – | –
CCCCCCCCCCCC[C@H](O)[C@@H]1CC[C@H]([C@H](O)CCCCCCC(=O)CCCCC[C@@H](O)CC2=C[C@H](C)OC2=O)O1 | 0.0045 mg/L (≈ 0.00722 µM) | 0.056 mg/L (≈ 0.0899 µM) | 0.047 mg/L (≈ 0.0755 µM) | 0.98 mg/L (≈ 1.57 µM) | – | – | –
COc1cccc2c1C(=O)c1c(O)c3c(c(O)c1C2=O)C[C@@](O)(C(=O)CO)C[C@@H]3O[C@H]1C[C@H](N)[C@H](O)[C@H](C)O1 [DOXORUBICIN] | 0.0092 mg/L (≈ 0.0169 µM) | 0.23 mg/L (≈ 0.423 µM) | 0.0392 mg/L (≈ 0.0721 µM) | – | – | – | –
C=C(C)[C@H]1Cc2c(ccc3c2O[C@@H]2COc4cc(OC)c(OC)cc4[C@@H]2C3=O)O1 [ROTENONE] | – | – | – | – | – | – | 34 µM
CCCCCCCCCCCC/C=C\CC[C@@H](O)[C@H](O)CCCCCCC(=O)CCCCC[C@@H](O)CC1=C[C@H](C)OC1=O [VENEZENIN] | 0.0108 mg/L (≈ 0.0178 µM) | < 0.01 mg/L | 1.58 mg/L (≈ 2.6 µM) | 9.33 mg/L (≈ 15.4 µM) | – | – | –
